{"source": "patent US20120071499A1", "about": "“Substituted Spiro[3H-Indole-3,6'(5'H)-[1H]Pyrrolo[1,2c]Imidazole-1',2(1H,2'H)-diones” (priority 2010, published 2012)"}
{"target": "interaction between p53 and MDM2 proteins (Homo sapiens, UniProt Q00987)", "sequence (Q00987 whole entry)": "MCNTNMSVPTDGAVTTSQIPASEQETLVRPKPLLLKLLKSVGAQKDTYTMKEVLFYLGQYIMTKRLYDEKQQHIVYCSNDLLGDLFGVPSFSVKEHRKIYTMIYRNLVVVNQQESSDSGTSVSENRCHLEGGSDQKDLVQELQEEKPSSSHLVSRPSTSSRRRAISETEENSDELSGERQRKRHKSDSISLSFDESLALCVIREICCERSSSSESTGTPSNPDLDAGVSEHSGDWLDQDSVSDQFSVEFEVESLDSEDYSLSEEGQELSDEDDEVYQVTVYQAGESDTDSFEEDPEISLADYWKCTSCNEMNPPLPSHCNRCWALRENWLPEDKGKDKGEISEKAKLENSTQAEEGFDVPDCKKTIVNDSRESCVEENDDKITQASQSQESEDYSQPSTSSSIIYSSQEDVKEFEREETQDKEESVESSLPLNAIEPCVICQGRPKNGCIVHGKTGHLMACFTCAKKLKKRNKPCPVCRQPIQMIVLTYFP", "test": "HTRF assay of inhibition of p53-MDM2 interaction (GST-MDM2 / biotinylated p53 peptide)", "units": {"IC50": "nM"}, "protocol": "The ability of the compounds to inhibit the interaction between p53 and MDM2 proteins was measured by an HTRF (homogeneous time-resolved fluorescence) assay in which recombinant GST-tagged MDM2 binds to a peptide that resembles the MDM2-interacting region of p53. Binding of GST-MDM2 protein and p53-peptide (biotinylated on its N-terminal end) is registered by the FRET (fluorescence resonance energy transfer) between Europium (Eu)-labeled anti-GST antibody and streptavidin-conjugated Allophycocyanin (APC).\nTest is performed in black flat-bottom 384-well plates (Costar) in a total volume of 40 uL containing: 90 nM biotinylate peptide, 160 ng/ml GST-MDM2, 20 nM streptavidin-APC (PerkinElmerWallac), 2 nM Eu-labeled anti-GST-antibody (PerkinElmerWallac), 0.2% bovine serum albumin (BSA), 1 mM dithiothreitol (DTT) and 20 mM Tris-borate saline (TBS) buffer as follows: Add 10 uL of GST-MDM2 (640 ng/ml working solution) in reaction buffer to each well. […] Incubate at 37° C. for 1 h. Add 20 uL streptavidin-APC and Eu-anti-GST antibody mixture (6 nM Eu-anti-GST and 60 nM streptavidin-APC working solution) in TBS buffer with 0.2% BSA, shake at room temperature for 30 minutes and read using a TRF-capable plate reader at"}
{"molecule": "COc1cc(C(N)=O)ccc1N1CN2[C@@H](CC(C)(C)C)[C@@]3(C(=O)Nc4cc(Cl)ccc43)[C@@H](c3cccc(Cl)c3F)[C@@H]2C1=O", "note": "[Example 22, chiral 4-((3R,5′S,7′S,7a′R)-6-chloro-7′-(3-chloro-2-fluorophenyl)-5′-neopentyl-1′,2-dioxo-7′,7a′-dihydrospiro[indoline-3,6′-pyrrolo[1,2-c]imidazole]-2′(1′H,3′H,5′H)-yl)-3-methoxybenzamide]", "IC50": 5}
{"molecule": "CC(C)(C)CC1N2CN(CC(=O)O)C(=O)C2C(c2cccc(Cl)c2F)C12C(=O)Nc1cc(Cl)ccc12", "note": "(racemic) [Example 37, rac of 2-((3R,5′S,7′S,7a′R)-6-chloro-7′-(3-chloro-2-fluorophenyl)-5′-neopentyl-1′,2-dioxo-7′,7a′-dihydrospiro[indoline-3,6′-pyrrolo[1,2-c]imidazole]-2′(1′H,3′H,5′H)-yl)acetic acid]", "IC50": 13}
{"molecule": "COc1cc(N2CN3[C@@H](CC(C)(C)C)[C@@]4(C(=O)N(CO)c5cc(Cl)ccc54)[C@@H](c4cccc(Cl)c4F)[C@@H]3C2=O)ccc1C(N)=O", "note": "[Example 31]", "IC50": 12}
{"molecule": "COc1cc(N2CN3[C@@H](CC(C)(C)C)[C@@]4(C(=O)N(CO)c5cc(Cl)ccc54)[C@@H](c4cccc(Cl)c4F)[C@@H]3C2=O)ccc1C(=O)O", "note": "(racemic) [Example 16, Rac 4-((3R,5′S,7′S,7a′R)-6-chloro-7′-(3-chloro-2-fluorophenyl)-1-(hydroxymethyl)-5′-neopentyl-1′,2-dioxo-7′,7a′-dihydrospiro[indoline-3,6′-pyrrolo[1,2-c]imidazole]-2′(1′H,3′H,5′H)-yl)-2-methoxybenzoic acid]", "IC50": 25}
{"molecule": "COc1cc(N2CN3[C@@H](CC(C)(C)C)[C@@]4(C(=O)Nc5cc(Cl)ccc54)[C@@H](c4cccc(Cl)c4F)[C@@H]3C2=O)ccc1C(N)=O", "note": "(single isomer, unassigned) [Example 25]", "IC50": 4}
{"molecule": "COc1cc(C(=O)O)ccc1N1CN2[C@@H](CC(C)(C)C)[C@@]3(C(=O)Nc4cc(Cl)ccc43)[C@@H](c3cccc(Cl)c3F)[C@@H]2C1=O", "note": "[Example 21, chiral 4-((3S,5′R,7′R,7a′S)-6-chloro-7′-(3-chloro-2-fluorophenyl)-5′-neopentyl-1′,2-dioxo-7′,7a′-dihydrospiro[indoline-3,6′-pyrrolo[1,2-c]imidazole]-2′(1′H,3′H,5′H)-yl)-3-methoxybenzoic acid]", "IC50": 6}
{"molecule": "CC(C)(C)C[C@H]1N2CN(c3ccc(C(=O)O)cc3)C(=O)[C@@H]2[C@@H](c2cccc(Cl)c2F)[C@@]12C(=O)Nc1cc(Cl)ccc12", "note": "[Example 30, chiral 4-((3S,5′R,7′R,7a′S)-6-chloro-7′-(3-chloro-2-fluorophenyl)-5′-neopentyl-1′,2-dioxo-7′,7a′-dihydrospiro[indoline-3,6′-pyrrolo[1,2-c]imidazole]-2′(1′H,3′H,5′H)-yl)benzoic acid]", "IC50": 128}
{"molecule": "COc1cc(N2CN3[C@@H](CC(C)(C)C)[C@@]4(C(=O)Nc5cc(Cl)ccc54)[C@@H](c4cccc(Cl)c4F)[C@@H]3C2=O)ccc1C(=O)O", "note": "(racemic) [Example 18, Rac 4-((3R,5′S,7′S,7a′R)-6-chloro-7′-(3-chloro-2-fluorophenyl)-5′-neopentyl-1′,2-dioxo-7′,7a′-dihydrospiro[indoline-3,6′-pyrrolo[1,2-c]imidazole]-2′(1′H,3′H,5′H)-yl) 2-methoxybenzoic acid]", "IC50": 7}
